≈ marks a conversion by molar mass, not a printed value. Entries after “also recorded” stand apart in the source; their conditions may differ. Read-outs that look alike come from different tables or passages of the source. Each block holds one molecule with its values, some of them ahead of it.
How the values were obtained:
EMRSA-16 [1] = experiment: Minimum inhibitory concentration (MIC) testing in 96-well microtitre trays; type: cell-based, S. aureus
From the text: (§1) Reagents and bacterial strains: 3-O-(−)-epicatechingallate and (+)-catechin were provided by the Tokyo Food Techno Co., Tokyo, Japan. Octanoic acid and oxacillin were purchased from Sigma (Poole, United Kingdom). The acyl-(+)-catechin derivatives and octanoyl-(−)-epicatechin were synthesised as outlined below. S. aureus BB568 (COL-type strain that carries mecA and pT181) and BB551 (methicillin-sensitive) were provided by Professor B. Berger-Baechi. EMRSA-15 and EMRSA-16 were clinical isolates from the Royal Free Hospital, London. Strains of S. aureus can be considered resistant to methicillin in which growth occurs in the presence of 8 microgram/ml methicillin (National Committee for Clinical Laboratory Standards, 1990—Methods for dilution antimicrobial susceptibility tests for bacteria that grow aerobically (second edition). Document M7-A2. NCCLS, Villanova, Pa., U.S.A.).
(§2) S. aureus ATCC29213 was used as the standard.

EMRSA-15 = experiment: as above; type: cell-based, S. aureus
From the text: as §1, §2

S. aureus BB568 = experiment: as above; type: cell-based
From the text: as §1, §2

staphylococcal = conditions: stated or reported, no test in the patent; cited from earlier work
S. aureus = experiment: MIC testing, summary over the three strains tested; type: cell-based
From the text: as §1, §2

EMRSA-16 [2] = experiment: Bacterial membrane damage (BacLight kit, SYTO 9/propidium iodide) and CFU after 10 min exposure; type: cell-based, S. aureus; conditions: for Membrane Effect % Control (BacLight) / Delta Log 10 (CFU/ml): 10 min exposure; for Delta Log 10 (CFU/ml): Log10 decrease vs control
Experimental: Bacterial membrane damage: EMRSA-16 was grown overnight in Mueller-Hinton broth at 37° C. The overnight culture was diluted 1:40 into fresh pre-warmed Mueller-Hinton broth and the diluted culture incubated at 37° C., with aeration (200 rpm), until the optical density at 600 nm (OD600) reached 0.7-0.8. The cells were recovered by centrifugation (10.000×g for 10 min), washed once with filtered-sterilized water, and resuspended to 1:10 the original volume in filter-sterilized water. The culture was further diluted 1:20 into water containing ethanol (1 vol %; the solvent was used to dissolve the compounds) or water containing the catechin. The cells were exposed to the compounds for 10 min (at room temperature and gentle shaking), after which a sample was removed for CFU determination and the remainder of the cells were recovered by centrifugation (10.000×g for 10 min). The cell pellet was washed once with water and then resuspended to an OD670 of 0.15.
Damage to the bacterial cytoplasmic membrane was determined with the reagents (SYTO 9 and propidium iodide) contained in the BacLight kit from Molecular Probes Europe BV (Leiden, The Netherlands). An equal mixture (4.5 microliter each) of SYTO 9 dye and propidium iodide was added to 3 ml of sample in a cuvette and the sample mixed by inversion of the cuvette three times. The sample was maintained in the dark for 15 min and the fluorescence of the two dyes was determined with a spectrofluorometer (Jacso FP-750). Both dyes were excited with a wavelength of 485 nm and the emission of SYTO 9 was read at 530 nm (Em1) and propidium iodide was read at 645 nm (Em2). The ratio of SYTO 9 to propidium iodide emissions (R=Em1/Em2) was expressed as a percentage of the control (BacLight value=[Rsample/Rcontrol]×100). The sample removed for CFU determination was serially diluted in 0.1M phosphate-buffered saline (pH 7.4) then plated onto nutrient agar. The number of colonies on the plates was recorded after 24 h incubation at 37° C. and the results expressed as a Log10 decrease in CFU/ml compared to the control sample.
Staphylococcal membrane damage: Damage to the staphylococcal cytoplasmic membrane was assessed by use of the BacLight kit (Molecular Probes Inc.). The kit makes use of two nucleic acid stains, SYTO-9 and propidium iodide, with different spectral properties and abilities to penetrate intact bacterial membranes. SYTO-9 penetrates both intact and damaged membranes while propidium iodide only penetrates damaged membranes. Cells with intact membranes stain fluorescent green while cells with damaged membranes stain fluorescent red. The ratios of green to red fluorescence, for EMRSA-16 exposed to test compounds, are expressed as a percentage of the control and are given in the table below.

[3] = tested on: Erythrocytes from defibrinated Horse blood; experiment: Erythrocyte haemolysis; type: cell-based; conditions: 10 min
Experimental: Erythrocyte haemolysis: Erythrocytes from defibrinated Horse blood (Oxoid) were collected by centrifugation (6,000×g, 3 min) and washed three to four times in 10 mM Tris-HCI (pH 7.4) containing 0.9% NaCI. The erythrocytes were resuspended to 1% in the wash buffer and 200 microliter of cells was added to 1300 microliter of buffer containing the test compound. The sample was mixed gently for 10 min at room temperature and the intact erythrocytes were removed by centrifugation (6,000×g, 3 min). Haemolysis was evaluated by measuring the absorbance of the supernatant at 540 nm. Cells were added to buffer containing 0.5% NH4OH to give an indication of 100% lysis. The results were expressed as a percentage of absorbance reading for 100% lysis. Buffer containing only washed erythrocytes was used to assess the extent of lysis in the absence of the test compound.
Hemolysis: The amount hemoglobin released from horse blood erythrocytes after exposure to the compounds for 10 min was used to assess the effect of the compounds on eukaryotic membranes.

EMRSA-16 [4] = experiment: Effect on bacterial growth (viable counts, CFU/ml); type: cell-based, S. aureus; conditions: for reduction in cell numbers: over six hours
Experimental: Effect on bacterial growth: EMRSA-16 was grown overnight in Mueller-Hinton broth at 37° C. The overnight culture as diluted 1:400 into 50 ml volumes of pre-warmed (37° C.) Mueller-Hinton broth containing various concentrations of contemplated compounds. The control flask contained ethanol (1 vol %). The flasks were incubated at 37° C. with aeration (200 rpm). At two-hour intervals samples were withdrawn from the flasks, serially diluted in 0.1M phosphate-buffered saline (pH 7.4) solutions, and plated onto nutrient agar (Oxoid). The number of colonies was recorded at 24 h incubation at 37° C. and expressed as the number of CFU/ml.

S. aureus BB551 = experiment: Electron microscopy, effect on cell wall morphology; type: cell-based; conditions: grown overnight in the presence of the compound; electron micrograph
Experimental: Electron microscopy: S. aureus BB551 was grown overnight at 37° C. in Mueller-Hinton broth in the absence and presence of either epicatechin-(−)-gallate or octanoyl-(+)-catechin. The cells were recovered by centrifugation and washed once in 0.1M phosphate-buffered saline, pH 7.4. Cells were fixed in 1.5% glutaraldehyde for at least 2 h at room temperature, treated with osmium tetroxide and embedded in epoxy resin. Sectioning and staining with uranyl acetate was followed by Reynolds' lead citrate. The ultrathin sections were viewed and photographed using a Philips 201 transmission electron microscope.

[5] = EMRSA-16; MIC of the compound itself; 35° C., 24 h
[6] = EMRSA-16; oxacillin MIC in the presence of the compound (tested at 0.25×MIC)
[7] = EMRSA-15; MIC of the compound itself; 35° C., 24 h
[8] = EMRSA-15; oxacillin MIC in the presence of the compound (tested at 0.25×MIC)
[9] = BB568; MIC of the compound itself; 35° C., 24 h
[10] = BB568; oxacillin MIC in the presence of the compound (tested at 0.25×MIC)
[11] = Staphylococcus aureus, 24 h; read-out: MIC Catechin
[12] = Staphylococcus aureus, 24 h, read-out: MIC Catechin

MIC Catechin (EMRSA-16 [1]; [5]): >32 MICROGRAM/ML | MIC Oxacillin (EMRSA-16 [1]; [6]): 512 MICROGRAM/ML | MIC Catechin (EMRSA-15; [7]): >32 MICROGRAM/ML | MIC Oxacillin (EMRSA-15; [8]): 32 MICROGRAM/ML | MIC Catechin (S. aureus BB568; [9]): 32 MICROGRAM/ML | MIC Oxacillin (S. aureus BB568; [10]): 256 MICROGRAM/ML
SMILES: CCCCCCCCCCCCCCCCCC(=O)O[C@H]1Cc2c(O)cc(O)cc2O[C@@H]1c1ccc(O)c(O)c1 [3-O-staeoryl-(+)-catechin, 3-O-stearoyl-(+)-catechin]

SMILES: O=C(O)c1cc(O)c(O)c(O)c1 [Gallic acid]
anti-staphylococcal activity (staphylococcal): no anti-staphylococcal activity

SMILES: CCCCC/C=C\C/C=C\CCCCCCCC(=O)O [linoleic acid, linoleic acid (C18:8)]
anti-staphylococcal activity (staphylococcal): anti-staphylococcal activity

MIC Catechin (EMRSA-16 [1]; [5]): >256 MICROGRAM/ML | MIC Oxacillin (EMRSA-16 [1]; [6]): 512 MICROGRAM/ML | MIC Catechin (EMRSA-15; [7]): >256 MICROGRAM/ML | MIC Oxacillin (EMRSA-15; [8]): 32 MICROGRAM/ML | MIC (S. aureus; the three strains tested): > 256 microgram/ml | MIC Catechin (S. aureus BB568; [9]): >256 MICROGRAM/ML | MIC Oxacillin (S. aureus BB568; [10]): 256 MICROGRAM/ML
SMILES: Oc1cc(O)c2c(c1)O[C@H](c1ccc(O)c(O)c1)[C@@H](O)C2 [(+)-catechin]

MIC Oxacillin (EMRSA-16 [1]; [6]): 512 MICROGRAM/ML | MIC (EMRSA-16 [1]; [11]): 1020 µg/mL (≈ 7100 µM) | MIC Oxacillin (EMRSA-15; [8]): 32 MICROGRAM/ML | MIC (EMRSA-15; [11]): 1020 µg/mL (≈ 7100 µM) | capacity to reduce the oxacillin MIC (S. aureus; tested at 0.25×MIC): two-fold | MIC Oxacillin (S. aureus BB568; [10]): 256 MICROGRAM/ML | MIC (S. aureus BB568; Staphylococcus aureus, BB568, 24 h; read-out: MIC Catechin): 1020 µg/mL (≈ 7100 µM)
SMILES: CCCCCCCC(=O)O [Octanoic acid]
concentration giving significant membrane damage (EMRSA-16 [2]): > 1024 microgram/ml | Membrane Effect % Control (BacLight) (EMRSA-16 [2]; 16 mcg/ml): 74% | Delta Log 10 (CFU/ml) (EMRSA-16 [2]; 16 mcg/ml): −0.1 | Membrane Effect % Control (BacLight) (EMRSA-16 [2]; 32 mcg/ml): 75% | Delta Log 10 (CFU/ml) (EMRSA-16 [2]; 32 mcg/ml): 0.1 | Membrane Effect % Control (BacLight) (EMRSA-16 [2]; 64 mcg/ml): 2% | Delta Log 10 (CFU/ml) (EMRSA-16 [2]; 64 mcg/ml): >7.0 | direct activity against S. aureus (S. aureus; result in words): no direct activity; also recorded: not active | hemolysis ([3]; 2×MIC): complete hemolysis | % Hemolysis ([3]; horse, 16 mcg/ml, pH 7.4): 3% | % Hemolysis ([3]; horse, 32 mcg/ml, pH 7.4): 4% | % Hemolysis ([3]; horse, 64 mcg/ml, pH 7.4): 100%

SMILES: Cc1onc(-c2ccccc2)c1C(=O)N[C@@H]1C(=O)N2[C@@H]1SC(C)(C)[C@@H]2C(=O)O [Oxacillin, oxacillin]
MIC (EMRSA-16 [1]; Staphylococcus aureus; EMRSA-16; oxacillin alone; read-out: MIC Oxacillin): 512 µg/mL (≈ 1280 µM) | MIC (EMRSA-15; Staphylococcus aureus; EMRSA-15; oxacillin alone; read-out: MIC Oxacillin): 32 µg/mL (≈ 79.7 µM) | MIC (S. aureus BB568; Staphylococcus aureus; BB568; oxacillin alone; read-out: MIC Oxacillin): 256 µg/mL (≈ 638 µM)

SMILES: CCCCCCCCCC=CCCCCC(=O)O (single isomer, unassigned) [palmitoleic acid isomer (C16:1delta6)]
anti-staphylococcal activity (staphylococcal): anti-staphylococcal activity

SMILES: O=C(O[C@@H]1Cc2c(O)cc(O)cc2O[C@@H]1c1ccc(O)c(O)c1)c1cc(O)c(O)c(O)c1 [(−)-epicatechingallate, 3-O-(−)-epicatechingallate]
MIC Oxacillin (EMRSA-16 [1]; [6]): 1 MICROGRAM/ML | MIC (EMRSA-16 [1]; [12]): 128 µg/mL (≈ 289 µM) | MIC Oxacillin (EMRSA-15; [8]): 1 MICROGRAM/ML | MIC (EMRSA-15; [12]): 128 µg/mL (≈ 289 µM) | effect on cell viability (EMRSA-16 [2]; 4× and 8×MIC, 10 min): little effect on cell viability | membrane permeability (EMRSA-16 [2]; 4×MIC): 48% | membrane permeability (EMRSA-16 [2]; 8×MIC): 64% | Membrane Effect % Control (BacLight) (EMRSA-16 [2]; 512 mcg/ml): 48% | Delta Log 10 (CFU/ml) (EMRSA-16 [2]; 512 mcg/ml): 0.0 | Membrane Effect % Control (BacLight) (EMRSA-16 [2]; 1024 mcg/ml): 64% | Delta Log 10 (CFU/ml) (EMRSA-16 [2]; 1024 mcg/ml): 0.1 | MIC (S. aureus; Staphylococcus aureus): 64 to 128 µg/mL (≈ 145 to 289 µM) | direct antistaphylococcal activity relative to (+)-catechin (S. aureus; greater activity than (+)-catechin): at least 4 fold | hemolysis ([3]; 4×MIC): did not give rise to hemolysis | hemolysis ([3]; 8×MIC): 21% | % Hemolysis ([3]; 512 mcg/ml): 6% | % Hemolysis ([3]; 1024 mcg/ml): 21% | reduction in cell numbers (EMRSA-16 [4]; 512 microgram/ml): 0.3 Log10 | reduction in cell numbers (EMRSA-16 [4]; 1024 microgram/ml): 0.85 Log10 | reduction in CFU/ml (EMRSA-16 [4]; 1024 microgram/ml, over the 24 h period): 5 Log10 | reduction in viable cell numbers (EMRSA-16 [4]; over the first two hour period, even at 8×MIC): did not give rise to a large reduction in viable cell numbers | MIC Oxacillin (S. aureus BB568; [10]): <1 MICROGRAM/ML | MIC Oxacillin (S. aureus BB568; BB568; oxacillin MIC in the presence of the compound (tested at 0.25×MIC); listed as epicatechin gallate): less than 1 MICROGRAM/ML | MIC (S. aureus BB568; Staphylococcus aureus, BB568, 24 h, read-out: MIC Catechin): 128 µg/mL (≈ 289 µM) | effect on cell wall morphology (S. aureus BB551): pseudomulticellular aggregates with increased cell wall thickening

SMILES: CCCCCCCCCCCC(=O)O [dedecanoic acid, dedecanoic acid (lauric acid) (C12:0)]
anti-staphylococcal activity (staphylococcal): anti-staphylococcal activity
